Test results: US20130287688A1, “NOVEL COMPOSITIONS AND USES OF ANTI-HYPERTENSION AGENTS FOR CANCER THERAPY” (XTUIT PHARMACEUTICALS, INC., priority 2010, published 2013)

Tests used:
[1] = test system: AK4.4 tumors; assay: Solid stress (tumor opening technique); design: species or system mice; details: mouse, in vivo
[2] = test system: tumors; assay: Solid stress after a panel of ARBs; assay type: in vivo; details: 40 mg/kg losartan, 3.2 mg/kg candesartan, 32 mg/kg valsartan
Description: Solid stress levels in tumors after angiotensin inhibition using the ARBs losartan, candesartan, and valsartan are shown. Doses were chosen based on their relative doses in patients for hypertension indications (40 mg/kg losartan, 3.2 mg/kg candesartan, 32 mg/kg valsartan). […] Animal numbers n=6-7. Statistical tests were corrected for multiple comparisons using the Holm-Bonferroni method.
The mechanism responsible for the increase in tumor vessel perfusion by losartan was investigated. Desmoplasia, high stromal cell and matrix density, is a major contributor to the solid stress accumulation that compresses vessels (Stylianopoulos T, et al., Growth-induced mechanical stress in murine and human tumors: causes, consequences and remedies. under review. 2012). Since angiotensin inhibitors reduce matrix production in tumors (Diop-Frimpong B, et al., Proc Natl Acad Sci USA. 2011; 108(7): 2909-14), it was hypothesized that they decompress vessels and increase perfusion by decreasing solid stress. Collagen levels were used as a metric of matrix production as described in Diop-Frimpong et al., Proc Nall Acad Sci USA. […] Moreover, losartan decreased collagen I concentration, measured based on staining intensity, in E0771 and AK4.4 tumors (FIGS. 24B-24C). Of note, dense collagen seemed to colocalize with low-perfusion areas (FIG. 24C). Next, solid stress in these tumors was measured using recently established technique described in Stylianopoulos T, et al., Growth-induced mechanical stress in murine and human tumors: causes, consequences and remedies. under review. 2012. […]
Solid stress: Solid stress was measured using the tumor opening technique as described previously (Stylianopoulos T, et al., Growth-induced mechanical stress in murine and human tumors: causes, consequences and remedies. under review. 2012). […] Subsequently, each tumor was excised, washed with Hanks' Balanced Salt Solution (HBSS) and its three dimensions were measured. […] Afterwards, the opening resulting from the cut was measured at the middle of the cut at the surface of the tumor. […]

[3] = test system: E0771 breast tumors; assay: Interstitial hydraulic conductivity of excised tumor tissue; assay type: in vivo, mice; details: 40 mg/kg i.p. daily, 6 days
Description: FIG. 31 is a bar graph showing that angiotensin inhibitors increase fluid flow in tumors. Interstitial hydraulic conductivity was measured by the flow rate of media through freshly excised tumor tissue. […] Animal number n=6.
Oxygenation was then studied using phosphorescence quenching microscopy. […] This decrease in tumor hypoxia was confirmed by using pimonidazole staining (FIGS. 29D and 30). To determine if losartan also increases nanomedicine delivery, which is dependent on both vascular supply and penetration across vessel walls into tumor tissue, nanoparticle penetration was measured using intravital multiphoton microscopy. Nanoparticle penetration rates were quantified as transvascular mass flux per unit vascular surface area and transvascular concentration difference, termed as the effective permeability. […] Penetration rates are largely dependent on fluid flow through the viscoelastic and tortuous tumor interstitium, which is a function of interstitial hydraulic conductivity. It was determined that losartan also increases the hydraulic conductivity of E0771 tumors (FIG. 31), likely through its anti-matrix effects, and a mathematical model (Chauhan V P, et al., Nature Nanotechnology. 2012; advance online publication) was used to confirm that this can improve the penetration rate of all sizes of nanomedicines (FIG. 32). […]

[4] = Losartan bioanalysis: plasma and tumor levels (HPLC/FLU); details: male, FVB, mouse, subcutaneous
[5] = test system: carcinoma associated fibroblasts (CAFs); details: losartan 10 μmol/L, 24 hrs
Description: Protein assays were done with commercial ELISA kits.
CAFs were plated in 24 well plates at a concentration of 500K cells/well. […] Treatment was done in low serum to reduce background collagen levels. Conditioned medium was collected at the end of the 24-hr treatment period and analyzed for collagen levels.
Collagen I measurements were done with a type I C-terminal collagen propetide Enzyme Linked Immunosorbent Assay (ELISA) kit (Quidel, San Diego, Calif.) and the Sircol soluble collagen assay (Biocolor Ltd., United Kingdom). TGF-β1 assays were performed with a human TGF-β1 ELISA kit (R&D Systems, Minneapolis, Minn.). The assay only measures the free-form of mature TGF-β1. To measure total levels of TGF-β1 the latent form of TGF-β1 was activated with 1N HCl.

Q: With `CCCCc1nc(Cl)c(CO)n1Cc1ccc(-c2ccccc2-c2nn[nH]n2)cc1` [losartan] as the compound, how does the solid stress [1] read?
A: The solid stress was “reduces solid stress”.

Q: And the solid stress [2]?
A: Its solid stress is “reduce solid stress to a similar degree”.

Q: And the interstitial hydraulic conductivity [3]?
A: The interstitial hydraulic conductivity was “large increase”.

Q: What about the concentration at 2 h ([4]; plasma, 40 mg/kg, Plasma 2 hr level, Day 14, Group 3: losartan subcutaneous injection without pump 40 mg/kg daily) of the same compound?
A: The concentration at 2 h was 423 ng/mL.

Q: And the concentration at 2 h ([4]; plasma, 40 mg/kg, Plasma 2 hr level, Day 19, Group 3: losartan subcutaneous injection without pump 40 mg/kg daily)?
A: The concentration at 2 h was 152 ng/mL.

Q: And the concentration at 6 h ([4]; plasma, 40 mg/kg, Plasma 6 hr level, Day 14, Group 3: losartan subcutaneous injection without pump 40 mg/kg daily)?
A: The concentration at 6 h was 11 ng/mL.

Q: And the concentration at 6 h ([4]; plasma, 40 mg/kg, Plasma 6 hr level, Day 19, Group 3: losartan subcutaneous injection without pump 40 mg/kg daily)?
A: Its concentration at 6 h is 28 ng/mL.

Q: And the concentration at 2 h ([4]; plasma, 40 mg/kg/day, Plasma 2 hr level, Day 14, Group 2: losartan via subcutaneous pump 40 mg/kg/day)?
A: Its concentration at 2 h is 227 ng/mL.

Q: What about the concentration at 2 h ([4]; plasma, 40 mg/kg/day, Plasma 2 hr level, Day 19, Group 2: losartan via subcutaneous pump 40 mg/kg/day) of the same compound?
A: The concentration at 2 h was 370 ng/mL.

Q: What about the concentration at 6 h ([4]; plasma, 40 mg/kg/day, Plasma 6 hr level, Day 14, Group 2: losartan via subcutaneous pump 40 mg/kg/day) of the same compound?
A: Its concentration at 6 h is 304 ng/mL.

Q: What about the concentration at 6 h ([4]; plasma, 40 mg/kg/day, Plasma 6 hr level, Day 19, Group 2: losartan via subcutaneous pump 40 mg/kg/day) of the same compound?
A: The concentration at 6 h was 376 ng/mL.

Q: And the concentration at 2 h ([4]; tumor, 40 mg/kg, Tumor 2 hr level, Day 14, Group 3: losartan subcutaneous injection without pump 40 mg/kg daily)?
A: The concentration at 2 h was 163 ng/mL.

Q: And the concentration at 2 h ([4]; tumor, 40 mg/kg, Tumor 2 hr level, Day 19, Group 3: losartan subcutaneous injection without pump 40 mg/kg daily)?
A: The concentration at 2 h was 41 ng/mL.

Q: And the concentration at 6 h ([4]; tumor, 40 mg/kg, Tumor 6 hr level, Day 14, Group 3: losartan subcutaneous injection without pump 40 mg/kg daily)?
A: Its concentration at 6 h is 21 ng/mL.

Q: What about the concentration at 6 h ([4]; tumor, 40 mg/kg, Tumor 6 hr level, Day 19, Group 3: losartan subcutaneous injection without pump 40 mg/kg daily) of the same compound?
A: Its concentration at 6 h is 54 ng/mL.

Q: What about the concentration at 2 h ([4]; tumor, 40 mg/kg/day, Tumor 2 hr level, Day 14, Group 2: losartan via subcutaneous pump 40 mg/kg/day) of the same compound?
A: The concentration at 2 h was 50 ng/mL.

Q: And the concentration at 2 h ([4]; tumor, 40 mg/kg/day, Tumor 2 hr level, Day 19, Group 2: losartan via subcutaneous pump 40 mg/kg/day)?
A: Its concentration at 2 h is 56.1 ng/mL.

Q: What about the concentration at 6 h ([4]; tumor, 40 mg/kg/day, Tumor 6 hr level, Day 14, Group 2: losartan via subcutaneous pump 40 mg/kg/day) of the same compound?
A: Its concentration at 6 h is 57 ng/mL.

Q: And the concentration at 6 h ([4]; tumor, 40 mg/kg/day, Tumor 6 hr level, Day 19, Group 2: losartan via subcutaneous pump 40 mg/kg/day)?
A: The concentration at 6 h was 66 ng/mL.

Q: And the “decrease in collagen I levels” value [5]?
A: Its value is 27%.

Q: What about the “reduction of active-TGF-β1 levels” value [5] of the same compound?
A: Its value is 90%.

Q: What about the “total TGF-β1 levels” value [5] of the same compound?
A: Its value is “unaffected”.
